Laboratory results from patent US20100267561A1, “HERBICIDAL PYRIDAZINONE DERIVATIVES” (priority 2007, published 2010).
Where two headings read alike, the source gives them in different places.

What was measured:
Experiment in all cases: Test B pre-/postemergence plant response
Format in all cases: in vivo
[1] = tested on: lambsquarters (Chenopodium album); settings: Preemergence, scale 0 to 100
In short: (§1)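 Seeds were sown and sprayed preemergence, while plants at 2 to 18 cm (1- to 4-leaf stage) got postemergence sprays. Compounds were formulated in a non-phytotoxic solvent mixture with surfactant. After 13 to 15 days in a greenhouse, injury was rated visually against untreated controls, 0 (no effect) to 100 (complete control).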

[2] = tested on: catchweed bedstraw (Galium aparine); settings: Preemergence
In short: as §1

[3] = tested on: bermudagrass (Cynodon dactylon); settings: for Bermudagrass plant response rating: 8 g ai/ha; for pest or weed control at 16 g/ha / pest or weed control at 31 g/ha / pest or weed control at 62 g/ha: Cynodon dactylon, read-out: Plant response rating, Bermudagrass; for pest or weed control at 16 g/ha: 16 g ai/ha; for pest or weed control at 31 g/ha: 31 g ai/ha; for pest or weed control at 62 g/ha: 62 g ai/ha
In short: as §1

[4] = tested on: wheat (Triticum aestivum); settings: for Wheat plant response rating: 8 g ai/ha; for plant injury at 16 g/ha: 16 g ai/ha; for plant injury at 62 g/ha: 62 g ai/ha
In short: as §1

corn (Zea mays) = settings: for Corn plant response rating: 8 g ai/ha; for Corn plant response rating (crop injury, 0 = no effect, 100 = complete kill) at 16 g/ha / Corn plant response rating (crop injury, 0 = no effect, 100 = complete kill) at 31 g/ha / Corn plant response rating (crop injury, 0 = no effect, 100 = complete kill) at 62 g/ha: Zea mays; for Corn plant response rating (crop injury, 0 = no effect, 100 = complete kill) at 16 g/ha: 16 g ai/ha; for Corn plant response rating (crop injury, 0 = no effect, 100 = complete kill) at 31 g/ha: 31 g ai/ha; for Corn plant response rating (crop injury, 0 = no effect, 100 = complete kill) at 62 g/ha: 62 g ai/ha
In short: as §1

[5] = tested on: morningglory (Ipomoea coccinea); settings: for Morningglory plant response rating: 8 g ai/ha; for pest or weed control at 16 g/ha / pest or weed control at 31 g/ha / pest or weed control at 62 g/ha: Ipomoea, read-out: Plant response rating, Morningglory; for pest or weed control at 16 g/ha: 16 g ai/ha; for pest or weed control at 31 g/ha: 31 g ai/ha; for pest or weed control at 62 g/ha: 62 g ai/ha
In short: as §1

kochia (Kochia scoparia) = settings: for Kochia plant response rating: 8 g ai/ha; for Plant response rating, Kochia: Postemergence
In short: as §1

[6] = tested on: blackgrass (Alopecurus myosuroides); settings: for pest or weed control at 31 g/ha: 31 g ai/ha; for pest or weed control at 62 g/ha: 62 g ai/ha
In short: as §1

[7] = post-emergence, Postemergence, scale 0 to 100
[8] = post-emergence, Postemergence, scale 0 to 100, 0 no effect, 100 complete control
[9] = pre-emergence, Preemergence, scale 0 to 100 (0 no effect, 100 complete control)
[10] = pre-emergence, Preemergence, 0 to 100 scale, 0 no effect, 100 complete control
[11] = pre-emergence, Preemergence, scale 0 to 100
[12] = Alopecurus myosuroides, post-emergence, Postemergence, scale 0 to 100, 0 no effect, 100 complete control, read-out: Plant response rating, Blackgrass

SMILES: CCc1c(C)c(-c2ccc(Cl)cc2)nn1-c1c(O)cnn(C)c1=O [Compound 26, 4-[3-(4-chlorophenyl)-5-ethyl-4-methyl-1H-pyrazol-1-yl]-5-hydroxy-2-methyl-3(2H)-pyridazinone]
- pest or weed control at 62 g/ha ([1]; Chenopodium album, pre-emergence, 62 g ai/ha, read-out: Plant response rating, Lambsquarters): 0%
- Lambsquarters plant response rating ([1]; 8 g ai/ha): 0
- pest or weed control at 16 g/ha ([2]; Galium aparine, pre-emergence, 16 g ai/ha, scale 0 to 100 (0 no effect, 100 complete control), read-out: Plant response rating, Galium): 0%
- pest or weed control at 31 g/ha ([2]; Galium aparine, pre-emergence, 31 g ai/ha, 0 to 100 scale, 0 no effect, 100 complete control, read-out: Plant response rating, Galium): 0%
- pest or weed control at 62 g/ha ([2]; Galium aparine, pre-emergence, 62 g ai/ha, scale 0 to 100, read-out: Plant response rating, Galium): 0%
- Galium plant response rating ([2]; 8 g ai/ha, scale 0 to 100): 0
- Bermudagrass plant response rating ([3]; postemergence, 0-100 scale): 0
- pest or weed control at 16 g/ha [3, 7]: 0%
- pest or weed control at 31 g/ha [3, 8]: 0%
- pest or weed control at 62 g/ha [3, 8]: 0%
- pest or weed control at 16 g/ha [3, 9]: 0%
- pest or weed control at 31 g/ha [3, 10]: 0%
- pest or weed control at 62 g/ha [3, 11]: 80%
- Bermudagrass plant response rating ([3]; Preemergence, scale 0 to 100 (0 no effect, 100 complete control)): 0
- Wheat plant response rating ([4]; postemergence, 0-100 scale): 0
- Wheat plant response rating ([4]; Preemergence, scale 0 to 100): 0
- plant injury at 16 g/ha ([4]; Triticum aestivum, post-emergence, Postemergence, scale 0 to 100, read-out: Plant response rating, Wheat): 0%
- plant injury at 62 g/ha ([4]; Triticum aestivum, post-emergence, Postemergence, scale 0 to 100, 0 no effect, 100 complete control, read-out: Plant response rating, Wheat): 5%
- plant injury at 16 g/ha ([4]; Triticum aestivum, pre-emergence, Preemergence, scale 0 to 100 (0 no effect, 100 complete control), read-out: Plant response rating, Wheat): 0%
- plant injury at 31 g/ha ([4]; Triticum aestivum, pre-emergence, Preemergence, 31 g ai/ha, 0 to 100 scale, 0 no effect, 100 complete control, read-out: Plant response rating, Wheat): 0%
- plant injury at 62 g/ha ([4]; Triticum aestivum, pre-emergence, Preemergence, scale 0 to 100, read-out: Plant response rating, Wheat): 0%
- Corn plant response rating (corn (Zea mays); postemergence, 0-100 scale): 0
- Corn plant response rating (corn (Zea mays); Preemergence, scale 0 to 100): 15
- Corn plant response rating (crop injury, 0 = no effect, 100 = complete kill) at 16 g/ha (corn (Zea mays); [7]): 0%
- Corn plant response rating (crop injury, 0 = no effect, 100 = complete kill) at 31 g/ha (corn (Zea mays); [8]): 100%
- Corn plant response rating (crop injury, 0 = no effect, 100 = complete kill) at 62 g/ha (corn (Zea mays); [8]): 100%
- Corn plant response rating (crop injury, 0 = no effect, 100 = complete kill) at 16 g/ha (corn (Zea mays); [9]): 30%
- Corn plant response rating (crop injury, 0 = no effect, 100 = complete kill) at 31 g/ha (corn (Zea mays); [10]): 70%
- Corn plant response rating (crop injury, 0 = no effect, 100 = complete kill) at 62 g/ha (corn (Zea mays); [11]): 98%
- Morningglory plant response rating ([5]; postemergence, 0-100 scale): 0
- pest or weed control at 16 g/ha [5, 7]: 0%
- pest or weed control at 31 g/ha [5, 8]: 0%
- pest or weed control at 62 g/ha [5, 8]: 0%
- pest or weed control at 16 g/ha [5, 9]: 0%
- pest or weed control at 31 g/ha [5, 10]: 0%
- pest or weed control at 62 g/ha [5, 11]: 0%
- Morningglory plant response rating ([5]; Preemergence, scale 0 to 100): 0
- Kochia plant response rating (kochia (Kochia scoparia); postemergence, 0-100 scale): 0
- Plant response rating, Kochia (kochia (Kochia scoparia); 16 g ai/ha, scale 0 to 100): 0
- Plant response rating, Kochia (kochia (Kochia scoparia); 31 g ai/ha, scale 0 to 100, 0 no effect, 100 complete control): 0
- Plant response rating, Kochia (kochia (Kochia scoparia); 62 g ai/ha, scale 0 to 100, 0 no effect, 100 complete control): 0
- Kochia plant response rating (kochia (Kochia scoparia); Preemergence, scale 0 to 100): 0
- Blackgrass plant response rating ([6]; 8 g ai/ha, postemergence, 0-100 scale): 0
- pest or weed control at 16 g/ha ([6]; Alopecurus myosuroides, post-emergence, Postemergence, 16 g ai/ha, scale 0 to 100, read-out: Plant response rating, Blackgrass): 50%
- pest or weed control at 31 g/ha [6, 12]: 80%
- pest or weed control at 62 g/ha [6, 12]: 80%
- pest or weed control at 31 g/ha ([6]; Alopecurus myosuroides, pre-emergence, Preemergence, 0 to 100 scale, 0 no effect, 100 complete control, read-out: Plant response rating, Blackgrass): 85%
- pest or weed control at 62 g/ha ([6]; Alopecurus myosuroides, pre-emergence, Preemergence, scale 0 to 100, read-out: Plant response rating, Blackgrass): 100%
